Test results published in ChEMBL document CHEMBL1148617, “Design, synthesis, and structure-activity relationships of 1-,3-,8-, and 9-substituted-9-deazaxanthines at the human A2B adenosine receptor” (J Med Chem, 2006).

Assays:
[1] = target: T1, Adenosine receptor A2b (Homo sapiens) (UniProt P29275); test: Displacement of [3H]DPCPX from recombinant human adenosine A2B receptor expressed in HEK293 cells at 0.01 uM
T1 sequence (whole entry): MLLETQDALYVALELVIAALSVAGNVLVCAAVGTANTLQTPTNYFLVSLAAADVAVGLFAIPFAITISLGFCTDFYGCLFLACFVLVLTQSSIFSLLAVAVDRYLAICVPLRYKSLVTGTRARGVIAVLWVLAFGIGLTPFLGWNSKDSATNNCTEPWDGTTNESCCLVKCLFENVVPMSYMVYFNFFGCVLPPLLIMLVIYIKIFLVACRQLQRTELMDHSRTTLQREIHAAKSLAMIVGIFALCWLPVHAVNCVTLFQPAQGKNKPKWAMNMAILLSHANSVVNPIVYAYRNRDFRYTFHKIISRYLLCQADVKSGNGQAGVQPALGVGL

Adenosine receptor A2a = Adenosine receptor A2a (Homo sapiens, UniProt P29274); test: Displacement of [3H]ZM-241385 from recombinant human adenosine A2A receptor expressed in HeLa cells at 0.1 uM
[2] = target: T1, Adenosine receptor A2b (Homo sapiens); test: Displacement of [3H]DPCPX from recombinant human adenosine A2B receptor expressed in HEK293 cells at 0.1 uM; assay type: cell-based

Adenosine receptor A2a, sequence (P29274 whole entry): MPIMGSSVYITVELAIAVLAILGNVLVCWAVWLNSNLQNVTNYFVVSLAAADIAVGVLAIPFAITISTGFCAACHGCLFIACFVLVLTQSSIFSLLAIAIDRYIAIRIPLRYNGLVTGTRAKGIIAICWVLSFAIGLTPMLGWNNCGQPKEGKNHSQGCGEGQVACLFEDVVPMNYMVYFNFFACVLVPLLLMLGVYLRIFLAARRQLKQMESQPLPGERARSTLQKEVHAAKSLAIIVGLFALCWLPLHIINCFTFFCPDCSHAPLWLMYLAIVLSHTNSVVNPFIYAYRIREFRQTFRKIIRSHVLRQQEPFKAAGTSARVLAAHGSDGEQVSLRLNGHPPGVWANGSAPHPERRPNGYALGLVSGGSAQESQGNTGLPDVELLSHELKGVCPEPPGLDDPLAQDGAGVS

SMILES	inhibition [1] [%]	inhibition (Adenosine receptor A2a) [%]	inhibition [2] [%]
Cn1c(=O)c2[nH]c(-c3ccc(OC(C)(C)C(=O)O)cc3)cc2n(C)c1=O	3	2	14
CCCn1c(=O)c2[nH]c(-c3ccc(OCC(=O)Nc4ccc(C)cn4)cc3)cc2n(C)c1=O	24	12	73
COc1cc(NC(=O)COc2ccc(-c3cc4c([nH]3)c(=O)n(C)c(=O)n4C)cc2)nc(OC)n1	12	14	50
CCCn1c(=O)c2[nH]c(-c3ccc(OCC(=O)OCC)cc3)cc2n(CCC)c1=O	9	21	55
CCCn1c(=O)c2[nH]c(-c3ccc(OCC(=O)NC(CO)c4ccccc4)cc3)cc2n(CCC)c1=O (stereo not drawn)	30	53	77
CCCn1c(=O)c2[nH]c(-c3ccc(OCC(=O)Nc4ncccc4C)cc3)cc2n(C)c1=O	25	26	68
CCCn1c(=O)c2[nH]c(-c3ccc(OC(C)(C)C(=O)O)cc3)cc2n(CCC)c1=O	12	6	26
COCCCn1c(=O)c2[nH]c(-c3ccc(OCC(=O)Nc4ccc(Br)cc4)cc3)cc2n(CCCOC)c1=O	45	30	85
CCCn1c(=O)c2[nH]c(-c3ccc(OCC(=O)N[C@H](C)[C@H](O)c4ccccc4)cc3)cc2n(CCC)c1=O	14	18	70
CCCn1c(=O)c2[nH]c(-c3ccc(N(C=O)CC(=O)Nc4ccc(F)cc4)cc3)cc2n(CCC)c1=O	24	89	93
CCCn1c(=O)n(C)c(=O)c2[nH]c(-c3ccc(OCC(=O)N(C)Cc4ccccc4)cc3)cc21	15	15	32
CC(Oc1ccc(-c2cc3c([nH]2)c(=O)n(C)c(=O)n3C)cc1)C(=O)O (stereo not drawn)	5	9	34
CCCn1c(=O)c2[nH]c(-c3ccc(N(C=O)CC(=O)Nc4ccccc4)cc3)cc2n(CCC)c1=O	10	61	46
O=C(COc1ccc(-c2cc3c([nH]2)c(=O)n(CC2CC2)c(=O)n3CC2CC2)cc1)Nc1ccc(F)cc1	57	98	95
Cn1c(=O)c2[nH]c(-c3ccc(OCC(=O)N[C@H]4C(O)O[C@H](CO)[C@@H](O)[C@@H]4O)cc3)cc2n(C)c1=O (stereo partly drawn)	7	13	33
CCCn1c(=O)c2[nH]c(-c3ccc(OCC(=O)Nc4cc(C)cc(C)n4)cc3)cc2n(CCC)c1=O	12	27	53
CCCn1c(=O)c2[nH]c(-c3ccc(OCC(=O)NC(C(=O)OC)c4ccccc4)cc3)cc2n(CCC)c1=O (stereo not drawn)	29	39	58
Cn1c(=O)c2[nH]c(-c3ccc(OCC(=O)O)cc3)c(Br)c2n(C)c1=O		4	24
CCCn1c(=O)c2[nH]c(-c3ccc(OCC(=O)Nc4cnccn4)cc3)cc2n(CCC)c1=O	10	34	68
CCCn1c(=O)n(C)c(=O)c2[nH]c(-c3ccc(OCC(=O)Nc4ccc(Br)cc4)cc3)cc21		91	84
CCCn1c(=O)c2[nH]c(-c3ccc(OCC(=O)NCc4ccncc4)cc3)cc2n(C)c1=O	27	3	49
CCCn1c(=O)c2[nH]c(-c3ccc(OC(C)(C)C(=O)O)cc3)cc2n(C)c1=O	8	3	50
CCCn1c(=O)c2[nH]c(-c3ccc(OCC(=O)Nc4ccc(F)cc4)cc3OC)cc2n(CCC)c1=O	16	43	27
CCCn1c(=O)c2[nH]c(-c3ccc(OCC(=O)Nc4cc(F)ccc4O)cc3)cc2n(CCC)c1=O	29	73	89
CCCn1c(=O)c2[nH]c(-c3ccc(OCC(=O)Nc4ccccc4)cc3OC)cc2n(CCC)c1=O	3	35	17
CCCn1c(=O)n(C)c(=O)c2[nH]c(-c3ccc(OCC(=O)Nc4ccc5c(c4)CCC5=O)cc3)cc21	12	26	50
CCCn1c(=O)c2[nH]c(-c3ccc(OCC(=O)Nc4ccc(Br)cc4)cc3OC)cc2n(CCC)c1=O	18	39	64
O=C(COc1ccc(-c2cc3c([nH]2)c(=O)n(CC(F)(F)F)c(=O)n3CC(F)(F)F)cc1)Nc1ccc(F)cc1	22	18	68

SMILES	inhibition [1] [%]	inhibition (Adenosine receptor A2a) [%]	inhibition [2] [%]
COCCCn1c(=O)c2[nH]c(-c3ccc(OCC(=O)Nc4ccccc4)cc3)cc2n(CCCOC)c1=O	1	28	65
CCOC(=O)c1ccc(NC(=O)COc2ccc(-c3cc4c([nH]3)c(=O)n(C)c(=O)n4C)cc2OC)cc1	10	0	47
CCCn1c(=O)n(C)c(=O)c2[nH]c(-c3ccc(OCC(=O)NCc4ccccc4)cc3)cc21	10	19	21
CC(C)Cn1c(=O)c2[nH]c(-c3ccc(OCC(=O)O)cc3)cc2n(C)c1=O		1	28
CCCn1c(=O)c2[nH]c(-c3ccc(N(C=O)CC(=O)O)cc3)cc2n(CCC)c1=O	9	9	40
CCCn1c(=O)c2[nH]c(-c3ccc(OCC(=O)OCC)cc3OC)cc2n(CCC)c1=O		10	1
CCCn1c(=O)c2[nH]c(-c3ccc(OCC(=O)Nc4ccc(C(F)(F)F)cc4)cc3)cc2n(CCC)c1=O	14	19	85
O=C(COc1ccc(-c2cc3c([nH]2)c(=O)n(CC(F)(F)F)c(=O)n3CC(F)(F)F)cc1)Nc1ccc(Br)cc1	29	11	79
COCCCn1c(=O)c2[nH]c(-c3ccc(OCC(=O)Nc4ccc(F)cc4)cc3)cc2n(CCCOC)c1=O	24	20	68
CCCn1c(=O)c2[nH]c(-c3ccc(OCC(=O)Nc4cccc(C)n4)cc3)cc2n(CCC)c1=O	20	45	68
Cn1c(=O)c2[nH]c(-c3ccc(OCC(=O)NCc4ccncc4)cc3)cc2n(C)c1=O	5	37	51
CCCn1c(=O)c2[nH]c(-c3ccc(OCC(=O)Nc4ccc(Br)cc4)cc3Cl)cc2n(CCC)c1=O	17	31	79
CN(C(=O)COc1ccc(-c2cc3c([nH]2)c(=O)n(C)c(=O)n3C)cc1)c1ccccc1	15	0	61
O=C(O)COc1ccc(-c2cc3c([nH]2)c(=O)n(CC(F)(F)F)c(=O)n3CC(F)(F)F)cc1	16	19	22
CCCn1c(=O)c2[nH]c(-c3ccc(OCC(=O)Nc4cc(C)ccn4)cc3)cc2n(CCC)c1=O	25	34	60
CCCn1c(=O)c2[nH]c(-c3ccc(OC(C(=O)O)c4ccccc4)cc3)cc2n(CCC)c1=O (stereo not drawn)	10	5	47
Cn1c(=O)c2[nH]c(-c3ccc(OCC(=O)O)cc3)cc2n(CCN2CCOCC2)c1=O		11	18
CCCn1c(=O)c2[nH]c(-c3ccc(OC(C(=O)Nc4ccccc4)c4ccccc4)cc3)cc2n(CCC)c1=O (stereo not drawn)	44	75	89
CCCn1c(=O)c2[nH]c(-c3ccc(OC(C)(C)C(=O)Nc4ccc(Br)cc4)cc3)cc2n(CCC)c1=O	49	54	87
CCCn1c(=O)c2[nH]c(-c3ccc(OCC(=O)O)cc3Cl)cc2n(CCC)c1=O	14	6	10
O=C(O)COc1ccc(-c2cc3c([nH]2)c(=O)n(CC2CC2)c(=O)n3CC2CC2)cc1	27	40	69
CCCn1c(=O)c2[nH]c(-c3ccc(OC(C(=O)Nc4ccc(F)cc4)c4ccccc4)cc3)cc2n(CCC)c1=O (stereo not drawn)	32	65	84
CCCn1c(=O)c2[nH]c(-c3ccc(OCC(=O)O)cc3OC)cc2n(CCC)c1=O		10	8
COCCCn1c(=O)c2[nH]c(-c3ccc(OCC(=O)O)cc3)cc2n(CCCOC)c1=O	10	9	12
CC(C)Cn1c(=O)c2[nH]c(-c3ccc(OCC(=O)Nc4ccccc4)cc3)cc2n(C)c1=O	15	2	57
Cn1c(=O)c2[nH]c(-c3ccc(OCC(=O)Nc4ccc(F)cc4)cc3)cc2n(CCN2CCOCC2)c1=O	16	10	27
Cn1c(=O)c2[nH]c(-c3cccc(OCC(=O)O)c3)cc2n(C)c1=O		15	23
